Patent US20230125667A1, “NOVEL TDZD ANALOGS AS AGENTS THAT DELAY, PREVENT, OR REVERSE AGE-ASSOCIATED DISEASES AND AS ANTI-CANCER AND ANTILEUKEMIC AGENTS” (United States Government as represented by the Department …, priority 2020, published 2023)
Read-outs that look alike come from different tables or passages of the source.

Experiments:
[1] = test system: SH-SY5Y-APPSw cells; test: Thioflavin-T staining of amyloid-like aggregates in SH-SY5Y-APPSw cells; type: cell-based, human; conditions: neuronal cells (FIG. 9)
Experimental: Several TDZD-conjugated drugs (putative GSK-3 inhibitors) were evaluated for their ability to reduce accumulation of protein aggregates, and for protection against aggregation-associated end-points in the following model systems: (i.) SH-SY5Y-APPSw, a neuroblastoma cell line expressing the Swedish mutation of Amyloid Precursor Protein (APPSw), and thus predisposed to form β-amyloid deposits; (ii.) C. elegans strain CL4176, a model of Alzheimer-like amyloidopathy that can be induced to express human Aβ1-42 in muscle, or may express it at a lower level without induction; (iii.) C. elegans strain AM141, a model of Huntington-like polyglutamine aggregation that constitutively expresses Q40::YFP (a tract of 40 glutamines fused in-frame to yellow fluorescent protein) in muscle cells and forms aggregates progressively with adult aging. The TDZD analog PNR-962 (a putative GSK-3 inhibitor) and other related compounds (not shown) were protective in all aggregation assays.
First, the effects of TDZD analogues were tested on the human neuroblastoma cell line SH-SY5Y-APPSw, a model of Alzheimer-like amyloid aggregation expressing the “Sw” mutant form of Amyloid Precursor Protein, APP. These drugs all produced significant reductions in amyloid-like aggregates, by 30-50% as quantified by thioflavin-T staining intensity (data for PNR-962 are shown in FIG. 4). Modified TDZD-8 analogues PNR-962 and BSK-179 are more anti-aggregative than TDZD-8, lowering total amyloid-staining intensity by a further 14% (data not shown).
Following previously described experimental procedures (Liu, et al. (2005). S100B-induced microglial and neuronal IL-1 expression is mediated by cell type-specific transcription factors. Journal of Neurochemistry. 92(3): 546-553), SH-SY5Y-APPSw neuronal cells expressing an aggregation-prone double mutant of amyloid precursor protein (APPSw) were cultured in DMEM plus 10% (v/v) fetal bovine serum (FBS) at 37° C. Cells were suspended in trypsin/EDTA and rinsed in PBS prior to re-plating or harvesting. […] Human neuroblastoma cells were treated with PNR962, either simultaneous with sAPPα or beginning 1 h prior to sAPPα addition (pre-treatment) in order to ascertain the protective benefits of PNR962 on protein aggregation in human neuroblastoma cell lines. A similar experimental procedure was followed to examine the effect of treatment with these analogs on non-neuronal human cells, exposing human embryonic kidney cells (HEK) that express tau-like aggregates (found in AD-associated diseases) to 0.001, 0.01, and 1-μM doses of TDZD-8 and its analogues.
To observe the protective effects of the novel TDZD analogs on protein aggregation in SY5Y-APPSw cells, using DMEM medium containing 10% fetal calf serum in […], cells were cultured at 37′C for 26 hrs allowing cells to approximately double in number. After 48 h of cell incubation in the presence of specified concentrations of drug or vehicle, cells were fixed 15 min in formaldehyde (4% v/v), washed, and stained 20 min at ˜22° C. in a dark container with 0.1% w/v Thioflavin T mixed with DAPI (1 μg/ml; Life Technologies, Grand Island, N.Y., USA). […] The intensity of aggregate/thioflavin-T fluorescence per field was quantified via an Image J plug-in developed in-house, and normalized to the number of DAPI^+ nuclei counted per field, to obtain an average intensity of aggregates per cell for each treatment.

[2] = test system: MV4-11 cell line (myelomonocytic leukemia); conditions: MV4-11 cells
[3] = test system: CCRF-CEM; test: NCI-60 growth inhibition: CCRF-CEM (Leukemia); type: cell-based, human; conditions: Homo sapiens
[4] = test system: HL-60(TB); test: NCI-60 growth inhibition: HL-60(TB) (Leukemia); type: cell-based, human; conditions: Homo sapiens; HL-60(TB) (Leukemia); read-out: GI50
[5] = test system: K-562; test: NCI-60 growth inhibition: K-562 (Leukemia); type: cell-based, human; conditions: Homo sapiens, K562
[6] = test system: MOLT-4; test: NCI-60 growth inhibition: MOLT-4 (Leukemia); type: cell-based, human; conditions: Homo sapiens
[7] = test system: RPMI-8226; test: NCI-60 growth inhibition: RPMI-8226 (Leukemia); type: cell-based, human; conditions: Homo sapiens
[8] = test system: SR; test: NCI-60 growth inhibition: SR (Leukemia); type: cell-based, human; conditions: Homo sapiens
[9] = test system: EKVX; test: NCI-60 growth inhibition: EKVX (Non-Small-Cell Lung Cancer); type: cell-based, human; conditions: Homo sapiens
[10] = test system: HOP-92; test: NCI-60 growth inhibition: HOP-92 (Non-Small-Cell Lung Cancer); type: cell-based, human; conditions: Homo sapiens
[11] = test system: NCI-H23; test: NCI-60 growth inhibition: NCI-H23 (Non-Small-Cell Lung Cancer); type: cell-based, human; conditions: Homo sapiens
[12] = test system: NCI-H460; test: NCI-60 growth inhibition: NCI-H460 (Non-Small-Cell Lung Cancer); type: cell-based, human; conditions: Homo sapiens
[13] = test system: COLO 205; test: NCI-60 growth inhibition: COLO 205 (Colon Cancer); type: cell-based, human; conditions: Homo sapiens
[14] = test system: HCT-15; test: NCI-60 growth inhibition: HCT-15 (Colon Cancer); type: cell-based, human; conditions: Homo sapiens
[15] = test system: HT29; test: NCI-60 growth inhibition: HT29 (Colon Cancer); type: cell-based, human; conditions: Homo sapiens, HT-29
[16] = test system: SW-620; test: NCI-60 growth inhibition: SW-620 (Colon Cancer); type: cell-based, human; conditions: Homo sapiens
[17] = test system: SF-268; test: NCI-60 growth inhibition: SF-268 (CNS Cancer); type: cell-based, human; conditions: Homo sapiens
[18] = test system: SF-539; test: NCI-60 growth inhibition: SF-539 (CNS Cancer); type: cell-based, human; conditions: Homo sapiens
[19] = test system: SNB-19; test: NCI-60 growth inhibition: SNB-19 (CNS Cancer); type: cell-based, human; conditions: Homo sapiens
[20] = test system: U251; test: NCI-60 growth inhibition: U251 (CNS Cancer); type: cell-based, human; conditions: Homo sapiens, U-251
[21] = test system: LOX IMVI; test: NCI-60 growth inhibition: LOX IMVI (Melanoma); type: cell-based, human; conditions: Homo sapiens
[22] = test system: MALME-3M; test: NCI-60 growth inhibition: MALME-3M (Melanoma); type: cell-based, human; conditions: Homo sapiens
[23] = test system: M14; test: NCI-60 growth inhibition: M14 (Melanoma); type: cell-based, human; conditions: Homo sapiens
[24] = test system: MDA-MB-435; test: NCI-60 growth inhibition: MDA-MB-435 (Melanoma); type: cell-based, human; conditions: Homo sapiens
[25] = test system: SK-MEL-2; test: NCI-60 growth inhibition: SK-MEL-2 (Melanoma); type: cell-based, human; conditions: Homo sapiens
[26] = test system: SK-MEL-28; test: NCI-60 growth inhibition: SK-MEL-28 (Melanoma); type: cell-based, human; conditions: Homo sapiens
[27] = test system: SK-MEL-5; test: NCI-60 growth inhibition: SK-MEL-5 (Melanoma); type: cell-based, human; conditions: Homo sapiens
[28] = test system: UACC-257; test: NCI-60 growth inhibition: UACC-257 (Melanoma); type: cell-based, human; conditions: Homo sapiens
[29] = test system: UACC-62; test: NCI-60 growth inhibition: UACC-62 (Melanoma); type: cell-based, human; conditions: Homo sapiens
[30] = test system: IGROV1; test: NCI-60 growth inhibition: IGROV1 (Ovarian Cancer); type: cell-based, human; conditions: Homo sapiens, IGROV-1
[31] = test system: OVCAR-3; test: NCI-60 growth inhibition: OVCAR-3 (Ovarian Cancer); type: cell-based, human; conditions: Homo sapiens
[32] = test system: OVCAR-4; test: NCI-60 growth inhibition: OVCAR-4 (Ovarian Cancer); type: cell-based, human; conditions: Homo sapiens
[33] = test system: OVCAR-5; test: NCI-60 growth inhibition: OVCAR-5 (Ovarian Cancer); type: cell-based, human; conditions: Homo sapiens
[34] = test system: OVCAR-8; test: NCI-60 growth inhibition: OVCAR-8 (Ovarian Cancer); type: cell-based, human; conditions: Homo sapiens
[35] = test system: 786-0; test: NCI-60 growth inhibition: 786-0 (Renal Cancer); type: cell-based, human; conditions: Homo sapiens
[36] = test system: A498; test: NCI-60 growth inhibition: A498 (Renal Cancer); type: cell-based, human; conditions: Homo sapiens
[37] = test system: ACHN; test: NCI-60 growth inhibition: ACHN (Renal Cancer); type: cell-based, human; conditions: Homo sapiens
[38] = test system: CAKI-1; test: NCI-60 growth inhibition: CAKI-1 (Renal Cancer); type: cell-based, human; conditions: Homo sapiens
[39] = test system: RXF 393; test: NCI-60 growth inhibition: RXF 393 (Renal Cancer); type: cell-based, human; conditions: Homo sapiens
[40] = test system: SN12C; test: NCI-60 growth inhibition: SN12C (Renal Cancer); type: cell-based, human; conditions: Homo sapiens
[41] = test system: TK-10; test: NCI-60 growth inhibition: TK-10 (Renal Cancer); type: cell-based, human; conditions: Homo sapiens
[42] = test system: UO-31; test: NCI-60 growth inhibition: UO-31 (Renal Cancer); type: cell-based, human; conditions: Homo sapiens
[43] = test system: PC-3; test: NCI-60 growth inhibition: PC-3 (Prostate Cancer); type: cell-based, human; conditions: Homo sapiens
[44] = test system: DU-145; test: NCI-60 growth inhibition: DU-145 (Prostate Cancer); type: cell-based, human; conditions: Homo sapiens
[45] = test system: MCF7; test: NCI-60 growth inhibition: MCF7 (Breast Cancer); type: cell-based, human; conditions: Homo sapiens
[46] = test system: MDA-MB-231/ATCC; test: NCI-60 growth inhibition: MDA-MB-231/ATCC (Breast Cancer); type: cell-based, human; conditions: Homo sapiens
[47] = test system: HS 578T; test: NCI-60 growth inhibition: HS 578T (Breast Cancer); type: cell-based, human; conditions: Homo sapiens
[48] = test system: BT-549; test: NCI-60 growth inhibition: BT-549 (Breast Cancer); type: cell-based, human; conditions: Homo sapiens
[49] = test system: T-47D; test: NCI-60 growth inhibition: T-47D (Breast Cancer); type: cell-based, human; conditions: Homo sapiens, T47D
[50] = test system: MDA-MB-468; test: NCI-60 growth inhibition: MDA-MB-468 (Breast Cancer); type: cell-based, human; conditions: Homo sapiens; MDA-MB-468 (Breast Cancer); read-out: GI50
[51] = test system: HCT-116; test: NCI-60 growth inhibition: HCT-116 (Colon Cancer); conditions: Homo sapiens, HCT-116
[52] = test system: human leukemia cell lines; test: NCI-60 growth inhibition, leukemia cell lines
[53] = test system: NCI-H522; test: NCI-60 growth inhibition: NCI-H522 (Non-Small-Cell Lung Cancer); conditions: Homo sapiens, NCI-H522
[54] = Ibuprofen-TDZD analogs (Table 3)

CC(C)Cc1ccc(C(C)C(=O)NCc2ccc(Cn3c(=O)sn(CCCl)c3=O)cc2)cc1 (stereo not drawn) [BSK-137]
reduction of aggregate intensity (Thioflavin-T staining) [1]: 34% | LD50, 7AAD (μM) 24 h [2, 54]: 3.39 µM | LD50, Alamar blue (μM) 24 h [2, 54]: 7.00 µM | LD50, YOPRO (μM) 24 h [2, 54]: 3.28 µM

C=C1C(=O)O[C@H]2[C@H]1CC/C(COC(=O)NCc1ccc(Cn3c(=O)sn(CCCC)c3=O)cc1)=C\CC[C@@]1(C)O[C@@H]21 [BSK-230]
GI50 [3]: 0.65 µM | GI50 [4]: 1.81 µM | GI50 [5]: 0.89 µM | GI50 [6]: 1.55 µM | GI50 [7]: 1.48 µM | GI50 [8]: 0.4 µM | GI50 [9]: 3.32 µM | GI50 [10]: 1.29 µM | GI50 [11]: 4.19 µM | GI50 [12]: 5.92 µM | GI50 [13]: 2 µM | GI50 [14]: 2.02 µM | GI50 [15]: 2.08 µM | GI50 [16]: 1.51 µM | GI50 [17]: 4.28 µM | GI50 [18]: 1.68 µM | GI50 [19]: 6.63 µM | GI50 [20]: 41.5 µM | GI50 [21]: 1.65 µM | GI50 [22]: 1.6 µM | GI50 [23]: 1.45 µM | GI50 [24]: 1.65 µM | GI50 [25]: 4.53 µM | GI50 [26]: 1.8 µM | GI50 [27]: 3.18 µM | GI50 [28]: 2.03 µM | GI50 [29]: 1.62 µM | GI50 [30]: 1.83 µM | GI50 [31]: 1.59 µM | GI50 [32]: 1.52 µM | GI50 [33]: 1.93 µM | GI50 [34]: 3.64 µM | GI50 [35]: 2 µM | GI50 [36]: 3.28 µM | GI50 [37]: 1.67 µM | GI50 [38]: 1.64 µM | GI50 [39]: 1.57 µM | GI50 [40]: 1.73 µM | GI50 [41]: 1.81 µM | GI50 [42]: 1.45 µM | GI50 [43]: 1.75 µM | GI50 [44]: 1.81 µM | GI50 [45]: 1.87 µM | GI50 [46]: 1.8 µM | GI50 [47]: 3.24 µM | GI50 [48]: 1.56 µM | GI50 [49]: 2.04 µM | GI50 [50]: 1.73 µM | LD50, 7AAD (μM) 24 h ([2]; MMB-TDZD analogs (Table 2)): 0.01 µM | LD50, Alamar blue (μM) 24 h ([2]; MMB-TDZD analogs (Table 2)): 0.30 µM | LD50, YOPRO (μM) 24 h ([2]; MMB-TDZD analogs (Table 2)): 0.02 µM | LD50 ([2]; values in text): 20 nM | GI50 [51]: 1.36 µM | GI50 ([52]; Homo sapiens): 0.28 to 0.9 µM | potency against leukemia cell lines (GI50 <1.0) ([52]; NCI panel): highly potent against 3 of the 6 leukemia cell lines | GI50 [53]: 1.19 µM
